{
  "source": "patent US20220305019A1",
  "about": "“PARAXANTHINE-BASED COMPOSITIONS FOR PROMOTING WEIGHT LOSS” (Ingenious Ingredients, LP, priority 2021, published 2022)",
  "assay_type_in_all_cases": "in vivo, human",
  "key": {"[1]": {"assay": "Appetite visual analog scale (VAS) after oral ingestion, crossover, two participants", "conditions": "200 mg CA; for Appetite Visual Analog Scale MEAN: mean 30-180 min", "procedure": "All supplements were orally ingested with 8 fluid ounces of cold tap water. The order of administration for all interventions was randomized using a random allocation software to ensure randomization and to avoid order effects. […] All study visits took place between 0600-1000 hours. At least 72 hours of rest will take place between each condition."}, "[2]": {"assay": "Swagger visual analog scale (VAS) after oral ingestion, crossover, two participants", "conditions": "200 mg Caffeine", "procedure": "(§1) All supplements were orally ingested with 8 fluid ounces of cold tap water. The order of administration for all interventions was randomized using a random allocation software to ensure randomization and to avoid order effects. After ingestion, participants completed all assessments in an identical fashion 30, 60, 90, 120, and 180 minutes after ingestion of their assigned supplement. All study visits took place between 0600-1000 hours. At least 72 hours of rest took place between each condition."}, "[3]": {"assay": "Confidence visual analog scale (VAS) after oral ingestion, crossover, two participants", "design": "Confidence (Visual Analog Scale) / Confidence VAS MEAN: scale not given here", "conditions": "for Confidence (Visual Analog Scale) / Confidence VAS MEAN / Confidence VAS mean Δ vs. 100 mg PX / Confidence VAS mean Δ vs. PLA: 200 mg Caffeine", "procedure": "as §1"}},
  "data": [
    {"smiles": "Cn1c(=O)c2c(ncn2C)n(C)c1=O", "note": "[CA, caffeine, reference compound]", "values": [
      {"measurement": "reduction in appetite compared to placebo", "setting": "[1]", "result": 2.4, "unit": "%"},
      {"measurement": "Appetite Visual Analog Scale", "setting": "[1]; 30 min, person one", "result": 70},
      {"measurement": "Appetite Visual Analog Scale", "setting": "[1]; 30 min, person two", "result": 50},
      {"measurement": "Appetite Visual Analog Scale", "setting": "[1]; 60 min, person one", "result": 100},
      {"measurement": "Appetite Visual Analog Scale", "setting": "[1]; 60 min, person two", "result": 60},
      {"measurement": "Appetite Visual Analog Scale", "setting": "[1]; 90 min, person one", "result": 100},
      {"measurement": "Appetite Visual Analog Scale", "setting": "[1]; 90 min, person two", "result": 61},
      {"measurement": "Appetite Visual Analog Scale", "setting": "[1]; 120 min, person one", "result": 100},
      {"measurement": "Appetite Visual Analog Scale", "setting": "[1]; 120 min, person two", "result": 65},
      {"measurement": "Appetite Visual Analog Scale", "setting": "[1]; 180 min, person one", "result": 100},
      {"measurement": "Appetite Visual Analog Scale", "setting": "[1]; 180 min, person two", "result": 70},
      {"measurement": "Appetite Visual Analog Scale MEAN", "setting": "[1]; Average of both", "result": 77.6},
      {"measurement": "Appetite Visual Analog Scale MEAN", "setting": "[1]; person one", "result": 94.0},
      {"measurement": "Appetite Visual Analog Scale MEAN", "setting": "[1]; person two", "result": 61.2},
      {"measurement": "Appetite VAS mean Δ vs. 100 mg PX", "setting": "[1]; person one", "result": "+65.0"},
      {"measurement": "Appetite VAS mean Δ vs. 300 mg PX", "setting": "[1]; person one", "result": "+66.8"},
      {"measurement": "Appetite VAS mean Δ vs. PLA", "setting": "[1]; person one", "result": "−0.2"},
      {"measurement": "Appetite VAS mean Δ vs. 100 mg PX", "setting": "[1]; person two", "result": "−12.8"},
      {"measurement": "Appetite VAS mean Δ vs. 300 mg PX", "setting": "[1]; person two", "result": "−2.8"},
      {"measurement": "Appetite VAS mean Δ vs. PLA", "setting": "[1]; person two", "result": "−12.0"},
      {"measurement": "Swagger (Visual Analog Scale)", "setting": "[2]; 30 min, person one", "result": 64},
      {"measurement": "Swagger (Visual Analog Scale)", "setting": "[2]; 30 min, person two", "result": 65},
      {"measurement": "Swagger (Visual Analog Scale)", "setting": "[2]; 60 min, person one", "result": 56},
      {"measurement": "Swagger (Visual Analog Scale)", "setting": "[2]; 60 min, person two", "result": 62},
      {"measurement": "Swagger (Visual Analog Scale)", "setting": "[2]; 90 min, person one", "result": 51},
      {"measurement": "Swagger (Visual Analog Scale)", "setting": "[2]; 90 min, person two", "result": 62},
      {"measurement": "Swagger (Visual Analog Scale)", "setting": "[2]; 120 min, person one", "result": 61},
      {"measurement": "Swagger (Visual Analog Scale)", "setting": "[2]; 120 min, person two", "result": 59},
      {"measurement": "Swagger (Visual Analog Scale)", "setting": "[2]; 180 min, person one", "result": 44},
      {"measurement": "Swagger (Visual Analog Scale)", "setting": "[2]; 180 min, person two", "result": 69},
      {"measurement": "Swagger VAS mean Δ vs. 100 mg PX", "setting": "[2]; person one", "result": "−31.0"},
      {"measurement": "Swagger VAS mean Δ vs. PLA", "setting": "[2]; person one", "result": "−23.4"},
      {"measurement": "Swagger VAS MEAN", "setting": "[2]; person two", "result": 63.4},
      {"measurement": "Swagger VAS mean Δ vs. 100 mg PX", "setting": "[2]; person two", "result": "−10.0"},
      {"measurement": "Swagger VAS mean Δ vs. PLA", "setting": "[2]; person two", "result": "+10.0"},
      {"measurement": "Confidence (Visual Analog Scale)", "setting": "[3]; 30 min, person one", "result": 80},
      {"measurement": "Confidence (Visual Analog Scale)", "setting": "[3]; 30 min, person two", "result": 74},
      {"measurement": "Confidence (Visual Analog Scale)", "setting": "[3]; 60 min, person one", "result": 91},
      {"measurement": "Confidence (Visual Analog Scale)", "setting": "[3]; 60 min, person two", "result": 76},
      {"measurement": "Confidence (Visual Analog Scale)", "setting": "[3]; 90 min, person one", "result": 71},
      {"measurement": "Confidence (Visual Analog Scale)", "setting": "[3]; 90 min, person two", "result": 66},
      {"measurement": "Confidence (Visual Analog Scale)", "setting": "[3]; 120 min, person one", "result": 80},
      {"measurement": "Confidence (Visual Analog Scale)", "setting": "[3]; 120 min, person two", "result": 70},
      {"measurement": "Confidence (Visual Analog Scale)", "setting": "[3]; 180 min, person one", "result": 90},
      {"measurement": "Confidence (Visual Analog Scale)", "setting": "[3]; 180 min, person two", "result": 65},
      {"measurement": "Confidence VAS MEAN", "setting": "[3]; Average of both", "result": 76.3},
      {"measurement": "Confidence VAS MEAN", "setting": "[3]; person one", "result": 82.4},
      {"measurement": "Confidence VAS mean Δ vs. 100 mg PX", "setting": "[3]; person one", "result": "+0.4"},
      {"measurement": "Confidence VAS mean Δ vs. PLA", "setting": "[3]; person one", "result": "+1"},
      {"measurement": "Confidence VAS MEAN", "setting": "[3]; person two", "result": 70.2},
      {"measurement": "Confidence VAS mean Δ vs. 100 mg PX", "setting": "[3]; person two", "result": "+0.2"},
      {"measurement": "Confidence VAS mean Δ vs. PLA", "setting": "[3]; person two", "result": "−0.8"},
      {"measurement": "effect on confidence", "setting": "[3]; 200 mg of CA", "result": "failed to increase confidence"}
    ]}
  ]
}
